Measured values published in ChEMBL document CHEMBL1201862, “PubChem BioAssay data set” (2004).
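Cells were grown in 96-well plates and exposed to each compound for 48 hours at five concentrations; endpoints were interpolated linearly between bracketing concentrations, or set to the highest concentration if not reached. The concentration for 50% growth inhibition is given as GI50.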 The source made the active and inactive calls. No stated cut-off is given here; in the data, active = GI50 up to about 1.1 µM and inactive = higher.

Tests used:
Assay in all cases: NCI tumour cell line growth inhibition, 48 h
[1] = test system: COLO 205
[2] = test system: HCC 2998
[3] = test system: HCT-15
[4] = test system: IGROV-1
[5] = test system: K562
[6] = test system: M14
[7] = test system: MOLT-4
[8] = test system: SF-268
[9] = test system: SF-295
[10] = test system: SK-MEL-28
[11] = test system: SK-MEL-2
[12] = test system: SNB-19
[13] = test system: SNB-75
[14] = test system: U-251
[15] = test system: UACC-257
[16] = test system: HOP-92

Row | SMILES | GI50 [1] | GI50 [2] | GI50 [3] | GI50 [4] | GI50 [5] | GI50 [6] | GI50 [7] | GI50 [8] | GI50 [9] | GI50 [10] | GI50 [11] | GI50 [12] | GI50 [13] | GI50 [14] | GI50 [15] | GI50 [16]
1 | CCOc1ccccc1/N=N/c1ccc2oc(=O)c(C(C)=O)cc2c1 | > 100 µM (inactive) | > 100 µM (inactive) | > 100 µM | > 100 µM (inactive) | > 100 µM (inactive) | > 100 µM (inactive) | > 100 µM (inactive) | > 100 µM (inactive) | 41.4 µM (inactive) | > 100 µM (inactive) | 71 µM (inactive) | 55.5 µM (inactive) | 16 µM (inactive) | 43.7 µM (inactive) | > 100 µM (inactive) | –
2 | O=C1CCC2(c3ccccc3)OCC([C@@H](O)c3ccccc3)N12 (stereo partly specified) | > 100 µM (inactive) | – | > 100 µM | > 100 µM (inactive) | > 100 µM (inactive) | – | – | > 100 µM (inactive) | > 100 µM (inactive) | > 100 µM (inactive) | > 100 µM (inactive) | > 100 µM (inactive) | > 100 µM (inactive) | > 100 µM (inactive) | > 100 µM (inactive) | > 100 µM (inactive)
3 | O=[N+]([O-])c1cc(-c2nnc(S)[nH]2)ccc1O | 20.1 µM (inactive) | > 100 µM (inactive) | 16.5 µM | > 100 µM (inactive) | > 100 µM (inactive) | > 100 µM (inactive) | – | > 100 µM (inactive) | > 100 µM (inactive) | > 100 µM (inactive) | > 100 µM (inactive) | > 100 µM (inactive) | – | > 100 µM (inactive) | > 100 µM (inactive) | –
4 | C[N+](C)(C)CC1CCCC/C1=N\O (stereo unspecified) | > 100 µM (inactive) | > 100 µM (inactive) | > 100 µM | > 100 µM (inactive) | > 100 µM (inactive) | > 100 µM (inactive) | > 100 µM (inactive) | > 100 µM (inactive) | > 100 µM (inactive) | > 100 µM (inactive) | > 100 µM (inactive) | > 100 µM (inactive) | – | > 100 µM (inactive) | > 100 µM (inactive) | > 100 µM (inactive)
5 | CC(C)C1CNC2N1C(=O)C2(C)OCc1ccccc1 (stereo unspecified) | > 100 µM (inactive) | > 100 µM (inactive) | > 100 µM | > 100 µM (inactive) | > 100 µM (inactive) | > 100 µM (inactive) | 80.5 µM (inactive) | > 100 µM (inactive) | > 100 µM (inactive) | > 100 µM (inactive) | > 100 µM (inactive) | > 100 µM (inactive) | 48.2 µM (inactive) | > 100 µM (inactive) | > 100 µM (inactive) | –
6 | O=C(O)C1OC(Oc2cc(O)c3c(=O)cc(-c4ccc(O)cc4)oc3c2)C(O)C(O)C1O (stereo unspecified) | > 100 µM (inactive) | > 100 µM (inactive) | – | – | – | > 100 µM (inactive) | – | > 100 µM (inactive) | > 100 µM (inactive) | > 100 µM (inactive) | > 100 µM (inactive) | > 100 µM (inactive) | > 100 µM (inactive) | > 100 µM (inactive) | > 100 µM (inactive) | < 0.01 µM (active)
7 | O=C(/C=C/c1c(O)ccc2ccccc12)c1cccc(O)c1 | > 100 µM (inactive) | > 100 µM (inactive) | > 100 µM | > 100 µM (inactive) | 44.3 µM (inactive) | > 100 µM (inactive) | 47 µM (inactive) | > 100 µM (inactive) | > 100 µM (inactive) | > 100 µM (inactive) | 42.3 µM (inactive) | > 100 µM (inactive) | 71.6 µM (inactive) | > 91.6 µM (inactive) | 76.9 µM (inactive) | > 62.8 µM (inactive)
8 | COc1cc(NCC(C#N)C#N)ccc1/N=N/c1ccc(Cl)cc1 | 17.7 µM (inactive) | 19.7 µM (inactive) | 20 µM | 30.5 µM (inactive) | 22.1 µM (inactive) | 16.4 µM (inactive) | 15.5 µM (inactive) | 38.5 µM (inactive) | 22.3 µM (inactive) | 27.2 µM (inactive) | 21.7 µM (inactive) | 13.1 µM (inactive) | 31.6 µM (inactive) | 18.5 µM (inactive) | – | –
9 | COC(=O)C1=CCON(c2ccccc2)C1c1ccccc1 (stereo unspecified) | 65.8 µM (inactive) | 65.5 µM (inactive) | 38 µM | 97.3 µM (inactive) | 40.4 µM (inactive) | 32.2 µM (inactive) | 27 µM (inactive) | 75.3 µM (inactive) | – | 43.5 µM (inactive) | 65.8 µM (inactive) | 62.8 µM (inactive) | 49.5 µM (inactive) | 40.3 µM (inactive) | – | –
10 | O=C(O)c1ccc([Se][Se]c2ccc(C(=O)O)cc2)cc1 | 32.9 µM (inactive) | 35.9 µM (inactive) | 35.6 µM | 30.4 µM (inactive) | – | 18.5 µM (inactive) | – | 33.9 µM (inactive) | 23.6 µM (inactive) | 20.7 µM (inactive) | 27.4 µM (inactive) | 34.1 µM (inactive) | 33.9 µM (inactive) | 21.1 µM (inactive) | – | –
11 | O=c1cc(-c2ccccc2)[nH]c2cc(Cl)cc(Cl)c12 | > 100 µM (inactive) | – | 6.79 µM | 52.7 µM (inactive) | 7.31 µM (inactive) | > 100 µM (inactive) | > 100 µM (inactive) | 28.4 µM (inactive) | 27 µM (inactive) | > 100 µM (inactive) | 46.1 µM (inactive) | – | 10.3 µM (inactive) | 31.1 µM (inactive) | > 100 µM (inactive) | 25.5 µM (inactive)
12 | O=C1C2=C(c3ccccc31)C(c1ccccc1)NC(S)=N2 (stereo unspecified) | > 100 µM (inactive) | > 100 µM (inactive) | 37.1 µM | 75.3 µM (inactive) | 22.3 µM (inactive) | 55.1 µM (inactive) | 31.4 µM (inactive) | 30.8 µM (inactive) | 31.9 µM (inactive) | 49.1 µM (inactive) | 84.1 µM (inactive) | 38 µM (inactive) | 14.4 µM (inactive) | 50.1 µM (inactive) | > 100 µM (inactive) | 14.8 µM (inactive)
13 | COc1cc(O)c2c(c1O)C(=O)c1cc(C)ncc1C2=O | 20.3 µM (inactive) | 22.5 µM (inactive) | 16.6 µM | 23.1 µM (inactive) | 20 µM (inactive) | 24.8 µM (inactive) | 30.8 µM (inactive) | 19.8 µM (inactive) | 19 µM (inactive) | 26.5 µM (inactive) | 22.3 µM (inactive) | 21.6 µM (inactive) | 20.3 µM (inactive) | 12.9 µM (inactive) | 15 µM (inactive) | –
14 | COc1ccc2nc(-c3cccs3)cc(C(O)CN3CCSCC3)c2c1 (stereo unspecified) | 22.9 µM (inactive) | 19.7 µM (inactive) | 16.1 µM | 36 µM (inactive) | 12.9 µM (inactive) | 18.1 µM (inactive) | 12.2 µM (inactive) | 27 µM (inactive) | 27.6 µM (inactive) | 24.9 µM (inactive) | 17 µM (inactive) | 29.2 µM (inactive) | 23.6 µM (inactive) | 19.2 µM (inactive) | 21.2 µM (inactive) | 14.3 µM (inactive)
15 | N#CNc1nc(C(=O)Nc2ccc(Cl)cc2)cc(-c2ccccc2)n1 | – | > 100 µM (inactive) | > 100 µM | > 100 µM (inactive) | > 100 µM (inactive) | > 100 µM (inactive) | > 100 µM (inactive) | > 100 µM (inactive) | > 100 µM (inactive) | > 100 µM (inactive) | > 100 µM (inactive) | > 100 µM (inactive) | > 100 µM (inactive) | > 100 µM (inactive) | > 100 µM (inactive) | > 100 µM (inactive)
16 | Clc1ccc2[nH]c(CCSCCc3nc4ccc(Cl)cc4[nH]3)nc2c1 | 15.4 µM (inactive) | 15.1 µM (inactive) | 13.2 µM | 10.2 µM (inactive) | 16.8 µM (inactive) | 13 µM (inactive) | 3.7 µM (inactive) | – | 7.62 µM (inactive) | – | 15.3 µM (inactive) | – | 19.5 µM (inactive) | 13.4 µM (inactive) | 12.7 µM (inactive) | 12.7 µM (inactive)
17 | Cc1cc(Cl)ccc1NC1=NC(=O)C(CC(=O)Nc2ccc(Cl)cc2Cl)S1 (stereo unspecified) | > 100 µM (inactive) | > 100 µM (inactive) | > 100 µM | > 100 µM (inactive) | > 100 µM (inactive) | > 100 µM (inactive) | > 100 µM (inactive) | > 100 µM (inactive) | > 100 µM (inactive) | > 100 µM (inactive) | > 100 µM (inactive) | > 100 µM (inactive) | > 100 µM (inactive) | > 100 µM (inactive) | > 100 µM (inactive) | –
18 | C/C=C/C=C/C=C/C=C/C(=O)O | > 100 µM (inactive) | > 100 µM (inactive) | > 100 µM | > 100 µM (inactive) | > 100 µM (inactive) | > 100 µM (inactive) | > 100 µM (inactive) | > 100 µM (inactive) | > 100 µM (inactive) | > 100 µM (inactive) | > 100 µM (inactive) | > 100 µM (inactive) | > 100 µM (inactive) | > 100 µM (inactive) | > 100 µM (inactive) | –
19 | CC1CC(=O)C(CC(=O)O)[C@H]1C(C(=O)C(=O)Nc1cc(Cl)ccc1Cl)[N+](=O)[O-] (stereo partly specified) | > 100 µM (inactive) | > 100 µM (inactive) | > 100 µM | > 100 µM (inactive) | > 100 µM (inactive) | – | – | > 100 µM (inactive) | > 100 µM (inactive) | > 100 µM (inactive) | – | > 100 µM (inactive) | 85.9 µM (inactive) | > 100 µM (inactive) | – | > 100 µM (inactive)
20 | COc1cc2nc(-c3cccc(N(C)C)c3)cc(O)c2cc1OC | 3.85 µM (inactive) | 2.39 µM (inactive) | 2.99 µM | 7.11 µM (inactive) | 3.62 µM (inactive) | 2.07 µM (inactive) | 5.19 µM (inactive) | 16.6 µM (inactive) | 2.58 µM (inactive) | – | – | 4.98 µM (inactive) | – | – | 5.28 µM (inactive) | > 100 µM (inactive)
